Assay results taken from US4564609A, “4-Substituted-2-azetidinone compound, process of producing the compounds, and medicaments containing the compounds” (Yamanouchi Pharmaceutical Co., Ltd., priority 1983, dated 1986).
Read-outs that look alike come from different tables or passages of the source.

Experiments:
male mice [1] = assay: Pentobarbital-induced hypothermia (Experiment 1); assay type: in vivo; conditions: i.v. 10 min after pentobarbital 55 mg/kg i.p.; rectal temperature 30 min after test compound; dose reducing hypothermia of control group by 1.5° C.
Protocol: Pentobarbital-induced hypothermia:
Nine male mice weighing 18 to 22 g were used for each dosage of the test compounds. Mice were given i.v. various doses of TRH or tested compounds 10 min. after pentobarbital (55 mg/kg i.p.). Rectal temperature was measured before pentobarbital dosing and immediately before and 30 min. after the test compounds. Effects of test compounds were evaluated as ED1.5° C., the dose required to reduce by 1.5° C. pentobarbital-hypothermia of control group of mice which received only pentobarbital and saline.

male mice [2] = assay: Disturbance of consciousness induced by concussive head injury (Experiment 2); assay type: in vivo; conditions: i.v. 10 min before concussive head injury, dose shortening spontaneous movement time of control group by 50%; for ED50: Mus musculus, iv, read-out: Onset time of spontaneous movement ED50%
Protocol: Disturbance of consciousness induced by concussive head injury:
Nine male mice weighing 18 to 22 g were used for each dosage of the test compounds. An acrylate weight containing lead (20.5 g, 19 mm in both diameter and thickness) was dropped to the head of mice from a 18 cm height. Mice were induced loss of consciousness and they remained motionless for some period. The time from the shock up to the onset of spontaneous movement was recorded as the spontaneous movement time. Test compounds were administered intravenously 10 min. before adding concussive head injury and effects of test compounds were evaluated as ED50%, the dose required to shorten by 50% the spontaneous movement time of control group.

male mice [3] = conditions: mouse, in vivo, iv
male mice [4] = assay: Acute toxicity (Experiment 3); conditions: intravenous

Compound	Reversal effect against pentobarbital-hypothermia ED1.5° C. (male mice [1])	ED50 (male mice [2])	LD50 (i.v.) (male mice [3])	LD50 (i.v.) (male mice [4])	Onset time of spontaneous movement ED50% (male mice [2])
NC(=O)[C@@H]1CSCN1C(=O)[C@H](Cc1c[nH]cn1)NC(=O)[C@@H]1CC(=O)N1 [Example 6, 3-[N^α -[(S)-2-azetidinone-4-carbonyl]-L-histidyl]-L-thiazolidine-4-carboxamide]	0.05 mg/kg				
NC(=O)[C@@H]1CCCN1C(=O)[C@H](Cc1c[nH]cn1)NC(=O)[C@@H]1CC(=O)N1 [Example 1, N^α -[(S)-2-azetidinone-4-carbonyl]-L-histidyl-L-prolinamide]	0.01 mg/kg	0.1 mg/kg	higher than 1493 mg/kg		
NC(=O)[C@@H]1CCCN1C(=O)[C@H](Cc1cnc[nH]1)NC(=O)[C@@H]1CCC(=O)N1 [TRH, L-pyroglutamyl-L-histidyl-L-prolinamide, reference compound]	0.1 mg/kg			751 mg/kg	2.5 mg/kg
Cn1cnc(CC(NC(=O)C2CC(=O)N2)C(=O)N2CCCC2C(N)=O)c1 [Example 19, N^α -[(s)-2-azetidinone-4-carbonyl]-N^.tau. -methyl-L-histidyl-L-prolinamide]	0.004 mg/kg				
O=C1C[C@@H](C(=O)N[C@@H](Cc2c[nH]cn2)C(=O)N2CCC[C@H]2C(=O)NCCO)N1 [Example 4, N^α -[(S)-2-azetidinone-4-carbonyl]-L-histidyl-N-(2-hydroxyethyl)-L-prolinamide]		0.35 mg/kg			
